# Molecular target: TRMT6/TRMT61A complex (Homo sapiens, UniProt Q96FX7+Q9UJA5)
# Test: screen for block of TRMT6/TRMT61A interaction in vitro; m1A by LC-MS/MS in treated PLC/PRF/[…] cells
# Format: cell-based
# Details: blocks subunit interaction (method not described); m1A read in cells treated at the proliferation IC50
# Sequence of TRMT6/TRMT61A complex (Q96FX7 2-289): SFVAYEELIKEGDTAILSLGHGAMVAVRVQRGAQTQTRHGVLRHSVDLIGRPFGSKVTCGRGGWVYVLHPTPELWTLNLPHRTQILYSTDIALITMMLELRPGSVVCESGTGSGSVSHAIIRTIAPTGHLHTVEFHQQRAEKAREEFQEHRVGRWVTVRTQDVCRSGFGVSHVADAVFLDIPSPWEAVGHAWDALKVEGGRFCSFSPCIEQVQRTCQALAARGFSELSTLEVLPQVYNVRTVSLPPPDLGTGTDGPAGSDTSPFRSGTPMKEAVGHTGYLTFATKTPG
# Sequence of TRMT6/TRMT61A complex (Q9UJA5 whole entry): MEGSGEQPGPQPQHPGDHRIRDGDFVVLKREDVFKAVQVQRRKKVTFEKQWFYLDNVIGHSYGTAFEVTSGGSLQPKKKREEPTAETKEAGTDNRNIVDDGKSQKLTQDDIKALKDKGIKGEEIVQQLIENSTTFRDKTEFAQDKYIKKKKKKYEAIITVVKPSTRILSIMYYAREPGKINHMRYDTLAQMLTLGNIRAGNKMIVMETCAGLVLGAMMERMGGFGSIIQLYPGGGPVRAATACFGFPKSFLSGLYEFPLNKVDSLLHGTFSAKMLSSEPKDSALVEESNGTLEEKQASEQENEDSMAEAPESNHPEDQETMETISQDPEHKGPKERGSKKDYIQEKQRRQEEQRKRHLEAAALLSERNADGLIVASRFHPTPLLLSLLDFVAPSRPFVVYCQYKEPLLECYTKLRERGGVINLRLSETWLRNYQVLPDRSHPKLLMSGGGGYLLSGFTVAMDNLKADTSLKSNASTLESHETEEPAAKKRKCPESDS
smiles,measurement,value
CN(C)C(=S)SSC(=S)N(C)C [thiram],screen for block of TRMT6/TRMT61A interaction in vitro; m1A by LC-MS/MS in treat,thiram acts as an efficient inhibitor against TRMT6/TRMT61A complex

# Reference: article PMC8563902, “N^1-methyladenosine methylation in tRNA drives liver tumourigenesis by regulating cholesterol metabolism” (Nature Communications, 2021)
